Data reported in patent publication US20230190657A1, “METHODS AND COMPOSITIONS FOR TREATING A FIBROTIC DISEASE” (TRUSTEES OF BOSTON UNIVERSITY, priority 2020, published 2023).
“Also recorded” adds a separate entry of the source.

Tests used:
[1] = Circular dichroism spectroscopy of relaxin-2 fold and stability; type: physicochemical
Method: Relaxin-2 loaded PLGA microparticles (RMPs) were prepared based on the water/oil/water (w/o/w) method as described by Igartua, M., et. al., International Journal of Pharmaceutics, 1998, 169(1): 45-54 at 1.27 x 10-3 wt % loaded relaxin as determined by ELISA analysis. Significant optimization and tailoring of the method was required to obtain the particle. Amounts, time, temperature, mixing speed, polymer LA:GA content were all varied to identify a unique non-obvious set of conditions to prepare the polymer. […] Relaxin-2 in the relaxin-2 microparticles maintained its native secondary and tertiary structure through the w/o/w double-emulsion process. […] Additionally, relaxin-2 was stable at 37° C. over 2 months (FIG. 2, right). The relaxin-2 PLGA microparticles were prepared with batch-to-batch consistency and were resuspended in PEG-600 to reduce aggregation and flocculation, as well as to ease administration through a 23G needle.
Two amphiphilic hydrogels were synthesized for the physical entrapment of relaxin-2 in order to control its sustained release (FIG. 6). These amphiphilic molecules melted at 95 °C and congealed when slowly cooled back to room temperature strictly from non-covalent interactions. The alkyl chain of 1 and alkyl fluoride chain of 2 allow for hydrophobic interactions between each molecule, while the […] and thymidine moieties allow for pi-pi stacking. Lastly, the deoxyribose and glucose groups facilitate hydrogen bonding (Godeau, G., et al., Tetrahedron Letters 2010, 51: 1012-1015; Ramen, F.A. et al., Biomaterials. 2017, 145: 72-80). Together, these amphiphilic molecules create unique and stable supramolecular assemblies that are stable at 37 °C for at least two weeks. This stability feature is another novel finding and benefit to the use of the hydrogels. Three gels of each 1 and 2 were created with bovine serum albumin and relaxin-2 at different densities by dissolving each molecule in a solution of phosphate buffered saline with protein and heating to 95 °C for 30 minutes. […] After cooling down to room temperature, relaxin-2-loaded gels were fully congealed (FIG. 7, right).

[2] = system: collagen I expression in human fibroblast-like synoviocytes (HFLS); test: Collagen I expression in HFLS treated with relaxin-2 microparticles in transwells; type: cell-based
Source text: Human fibroblast-like synoviocytes (HFLS) treated with relaxin-2 microparticles in transwells allow for evaluation of the release and efficacy of released relaxin-2 at various time points. […] In the presence of relaxin-2, collagen I is expressed at 20 to 30 % of the basal level at weeks 1, 3, and 4.

[3] = system: stiff shoulder (shoulder contracture), glenohumeral joint; test: Range of motion in rat shoulder contracture model; type: in vivo, rats
Method: The study was approved by the Institutional Animal Care and Use Committee, and 10 Sprague-Dawley rats (250-300 g, Charles River Laboratories, Wilmington, MA, USA) were used in the study. For each animal, torque was measured per degree, on the intact left shoulder as a function of rotation angle between 80° of internal rotation (negative values by convention) and 60° of external rotation (positive values by convention) prior to any surgical intervention (baseline). […] Therefore, torque values at 60° external rotation (rOUT) and 80° of internal rotation (τINT) were recorded for each animal.
The left forelimb of each animal was immobilized using extraarticular internal fixation. Under isoflurane anesthesia, a longitudinal skin incision was made perpendicular to the scapular spine. Two No. 2-0 braided polyester sutures (Ethibond Excel, Ethicon - San Lorenzo, PR, USA) were passed between the medial border of the scapula and the humeral shaft and tightened to immobilize the shoulder joint (FIG. 1, panel A). Muscular structures were not manipulated during surgery, and the animals were allowed normal activity in their cages immediately after the procedure.
After 8 weeks of immobilization, the restraining sutures were removed, and the 10 animals were divided into two groups to evaluate changes in ROM (ROM group, n = 5) and joint stiffness (stiffness group, n = 5). In the ROM group, changes in kinematics were longitudinally quantified in the follow-up period by measuring the ROM achieved with the τOUT and τINT measured at baseline. This was conducted to evaluate whether immobilization mediated a significant reduction in ROM. In the stiffness group, joint kinetics were examined by measuring the differences in τOUT and τINT needed to achieve the original 80° of internal rotation and 60° of external rotation, respectively. […]
To reproducibly capture ROM and torque, passive limb rotation was performed by a stepper motor controlled with a microcontroller (UNO R3, Arduino - Torino, Italy). […] In the ROM group, pre-set programmable torque values, specific for each animal and measured at baseline (τOUT and τINT), were used as input variables in order to detect changes in rotation ROM with 0.2° resolution. […]
This study investigated the effects of recombinant human relaxin-2 on the kinetics and kinematics of the glenohumeral joint in an animal model of shoulder contracture, as described in Villa-Camacho et al., Journal of Shoulder and Elbow Surgery, 2015, 24(11): 1809-16. […] For each animal, torque was measured per degree, on the intact left shoulder as a function of rotation angle between […] and 60° of external rotation prior to any surgical intervention. […]

[4] = system: shoulder joint (arthrofibrosis); test: Histological analysis of the shoulder joint in rat shoulder contracture model; type: in vivo; settings: immobilized shoulders of rats; mIA of relaxin-2 or relaxin loaded microparticles
human fibroblasts = settings: cited from earlier work
[5] = system: collagen build-up in the lung induced by bleomycin; settings: cited from earlier work
[6] = system: cultured renal fibroblasts, epithelial cells and mesangial cells; settings: cited from earlier work
heart failure = settings: 30 micrograms/kg/day for 2 days, intravenous infusion; cited from earlier work
[7] = in vivo; cited from earlier work
[8] = system: scleroderma (systemic sclerosis); settings: cited from earlier work

Q: Which “time stable at 37° C. without loss of alpha helical structure” value [1] does the source give for Relaxin-2 here?
A: up to 2 months

Q: What about the “time stable at 37° C. without loss of alpha helical structure” value ([1]; listed as relaxin-2) of the same substance?
A: 2 months

Q: And the “conformation after incubation at 95° C.” value ([1]; 95° C., at least one hour)?
A: maintains its folded 3D structure; also recorded: tolerant to incubation for at least one hour

Q: And the “secondary (alpha helical) structure after the double emulsion process” value ([1]; w/o/w double emulsion of PLGA microparticle synthesis)?
A: no change; also recorded: unaffected by the double emulsion process

Q: And the “antifibrotic efficacy (downregulation of collagen I expression) of released relaxin-2” value ([2]; HFLS / synoviocytes, over four weeks, versus untreated control)?
A: significant downregulation in collagen I expression

Q: And the “collagen I level by densitometry (reduced to)” value ([2]; synoviocytes, legend of FIG. 4 breaks off)?
A: approximately 50%

Q: And the “internal ROM” value ([3]; intravenous injection at a much greater dose)?
A: similarly constricted internal ROM compared with the untreated control group

Q: What about the “internal ROM” value ([3]; relaxin-2 as mIA (5 intraarticular injections of 2 ug/kg every other day), RMP as single injection of approximately 10 ug/kg) of the same substance?
A: significant increase back to healthy baseline by week 2

Q: What about the “internal ROM” value ([3]; relaxin-2 as mIA (5 intraarticular injections of 2 ug/kg every other day), RMP as single injection of approximately 10 ug/kg, listed as relaxin-2) of the same substance?
A: restoration of internal ROM to baseline measurements

Q: What about the “internal ROM” value ([3]; singular articular injection) of the same substance?
A: similarly constricted internal ROM compared with the untreated control group

Q: And the “histology: adhesions / hallmarks of arthrofibrosis” value [4]?
A: lacked any apparent adhesions

Q: And the “collagen and fibronectin levels” value (human fibroblasts)?
A: reduction in levels of collagen types I and III and fibronectin

Q: And the lung collagen build-up [5]?
A: decreased collagen build-up in the lung induced by bleomycin

Q: And the TGF-β-induced fibronectin levels [6]?
A: decreased TGF-β-induced fibronectin levels

Q: What about the “primary endpoint of effectiveness” value (heart failure) of the same substance?
A: did not meet the trial’s primary endpoint of effectiveness

Q: What about the pharmacokinetic profile [7] of the same substance?
A: rapid pharmacokinetic profile

Q: What about the “primary endpoint of effectiveness” value ([8]; 25 micrograms/kg/day for 24 weeks, subcutaneous delivery) of the same substance?
A: did not meet the trial’s primary endpoint of effectiveness

Q: And the renal adverse events ([8]; human, in vivo, sc)?
A: declines in creatine clearance and renal adverse events
